Here are results for 38 compounds from publication PMC8972196, “A Set of Experimentally Validated Decoys for the Human CC Chemokine Receptor 7 (CCR7) Obtained by Virtual Screening” (Frontiers in Pharmacology, 2022).

Molecules are shown by their SMILES. Read-outs that look alike come from different tables or passages of the source.

The target of this test is T1, human CCR7 (Homo sapiens, UniProt P32248).
T1 construct: expressed in transfected cells
T1 sequence (P32248 25-378): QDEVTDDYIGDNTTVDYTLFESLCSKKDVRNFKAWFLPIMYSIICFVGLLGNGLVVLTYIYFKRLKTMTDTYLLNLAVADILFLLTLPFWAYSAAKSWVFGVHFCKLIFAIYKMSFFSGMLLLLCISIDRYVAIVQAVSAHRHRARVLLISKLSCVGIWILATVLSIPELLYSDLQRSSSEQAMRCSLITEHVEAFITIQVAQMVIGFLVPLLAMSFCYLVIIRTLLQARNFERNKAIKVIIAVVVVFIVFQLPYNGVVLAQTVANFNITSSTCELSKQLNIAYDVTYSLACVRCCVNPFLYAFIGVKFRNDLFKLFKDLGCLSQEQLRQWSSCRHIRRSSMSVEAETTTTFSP
The test is described as follows: CCL19-induced calcium mobilization assay, U87.CD4 cells expressing CCR7. Particulars: for IC50: read-out: IC50 [μM] block CCL19 induced calcium signaling. Type of test: cell-based. As for the experimental part:
U87.CD4 cells that stably express either human CCR7, CXCR2, CCR5 or CXCR4 were seeded (20,000 cells/well) in gelatin-coated black-walled polystyrene 96-well plates with clear bottom and incubated overnight at 37°C and 5% CO2. […] Culture medium was removed, and cells were incubated for 45 min at room temperature in the dark. […] Exactly the same protocol was used to record calcium responses in Chinese hamster ovary (CHO)-K1 cells, upon stimulation with adenosine triphosphate (ATP, purchased from Sigma).
A general note: Calcium assays in cells follow changes in intracellular calcium, usually with a dye or a luminescent sensor.

Setting [1] is: CCL19-induced calcium signaling.
The mark [2] stands for this setting: classification of tested compounds as decoy or active.
Where [3] appears, read: CCL19 induced calcium signaling.
The mark [4] stands for this setting: classification as decoy or active on CCR7.

What is called IC50 is the concentration that inhibits the measured activity by half. With `CC(O)CNc1c(NCc2ccc3c(c2)OCO3)c(=O)c1=O` (stereo not shown) [C001, CC(O)CNc1c(NCc2ccc3c(c2)OCO3)c(=O)c1=O], the IC50 under setting [1] is > 50 µM. Besides, under setting [2], the “Decoy – 0 Active – 1” value amounted to 0.
For `CN(C)S(=O)(=O)c1ccc(-c2nnc(C(=O)NCc3ccccn3)o2)cc1` [C085, CN(C)S(=O)(=O)c1ccc(-c2nnc(C(=O)NCc3ccccn3)o2)cc1], in that order: > 50 µM and 0.
Turning to `O=S(=O)(NC(c1cccnc1)C1CCOCC1)c1ccc2c(c1)CCO2` (stereo not shown) [C256, c1cc(cnc1)C(C2CCOCC2)NS(=O)(=O)c3ccc4c(c3)CCO4], under setting [3], the concentration for half-maximal inhibition (IC50) was > 50 µM. For the same compound, the “Decoy – 0 Active – 1” value under setting [4] is 0.
On to `CN(Cc1ccccc1N[C@H]1CCN(C)C1=O)C(=O)c1cccs1` [C124, CN(Cc1ccccc1N[C@H]1CCN(C)C1=O)C(=O)c1cccs1], for which the half-maximal inhibitory concentration (IC50) under setting [1] was > 50 µM. The “Decoy – 0 Active – 1” value under setting [2] turned out to be 0.
On the same counts, the results for `O=c1c(Nc2cc(C(F)(F)F)cc(C(F)(F)F)c2)c(N[C@H]2CCCC[C@@H]2N2CCCCC2)c1=O` [C023, O=C1C(N[C@H]2CCCC[C@@H]2N3CCCCC3)=C(NC4=CC(C(F)(F)F)=CC(C(F)(F)F)=C4)C1=O] are > 50 µM and 0.
Turning to `Cc1ccc(S(=O)(=O)N(CC(=O)Nc2cccc([N+](=O)[O-])c2)Cc2ccc(F)cc2)cc1` [C236, Cc1ccc(cc1)S(=O)(=O)N(Cc2ccc(cc2)F)CC(=O)Nc3cccc(c3)[N+](=O)[O-]], the IC50 under setting [3] is > 50 µM. Moreover, under setting [4], the “Decoy – 0 Active – 1” value is 0.
For `Cc1ccc(S(=O)(=O)N(CCC(=O)NC(C)CO)c2ccccc2)cc1` (stereo not shown) [C250, Cc1ccc(cc1)S(=O)(=O)N(CCC(=O)NC(C)CO)c2ccccc2], in that order: > 50 µM and 0.
As for `Cc1nc(CCCC(=O)N[C@H]2CCN(C(C)C)C2=O)cs1` [C090, Cc1nc(CCCC(=O)N[C@H]2CCN(C(C)C)C2=O)cs1], the IC50 under setting [1] was > 50 µM. For the same compound, the “Decoy – 0 Active – 1” value under setting [2] stood at 0.
On to `O=C1CC(NCc2nc3ccccc3[nH]2)CN1Cc1ccccc1C(F)(F)F` (stereo not shown) [C277, O=C1CC(NCc2nc3ccccc3[nH]2)CN1Cc1ccccc1C(F)(F)F], for which the IC50 under setting [3] was > 50 µM. Moreover, under setting [4], the “Decoy – 0 Active – 1” value turned out to be 0.
For `COc1ccc(O)c(/C=C(\C#N)C(=O)Nc2cccc(Cl)c2Cl)c1` [C164, COc1ccc(O)c(/C=C(\C#N)C(=O)Nc2cccc(Cl)c2Cl)c1], in that order: > 50 µM and 0.
For `Cn1nc(C(=O)N[C@@H]2CCCC[C@@H]2Cc2ccccc2)ccc1=O` [C160, Cn1nc(C(=O)N[C@@H]2CCCC[C@@H]2Cc2ccccc2)ccc1=O], in that order: > 50 µM and 0.
With `CC1(C)[C@H]2CC[C@@]1(CNc1c(NCc3cc(C(F)(F)F)cc(C(F)(F)F)c3)c(=O)c1=O)[C@H](N1CCCC1)C2` [C019, O=C1C(NC[C@]23CC[C@H](C3(C)C)C[C@H]2N4CCCC4)=C(NCC5=CC(C(F)(F)F)=CC(C(F)(F)F)=C5)C1=O], the IC50 under setting [1] was > 50 µM. Moreover, under setting [2], the “Decoy – 0 Active – 1” value amounted to 0.
As to `CCc1cccc(NC(=S)NNC(=O)c2cccc([N+](=O)[O-])c2)c1` [C033, CCc1cccc(NC(=S)NNC(=O)c2cccc(c2)[N+]([O-])=O)c1], under setting [1], the half-maximal inhibitory concentration (IC50) was > 30 µM. The “Decoy – 0 Active – 1” value under setting [2] stood at 0.
For the compound `O=C(NCc1ccccc1N1CCOCC1)c1nc2ccccc2c(=O)[nH]1` [C201, O=C(NCc1ccccc1N1CCOCC1)c1nc2ccccc2c(=O)[nH]1], the IC50 under setting [3] was > 50 µM. Besides, under setting [4], the “Decoy – 0 Active – 1” value came out at 0.
For `CN(C)C(=O)c1cccc(CN2CCC[C@@H]2C[C@H](O)c2cnn(C)c2)c1` [C110, CN(C)C(=O)c1cccc(C[N@@H+]2CCC[C@@H]2C[C@H](O)c2cnn(C)c2)c1], under setting [1], the IC50 was > 50 µM. The “Decoy – 0 Active – 1” value under setting [2] is reported as 0.
`Cc1ccc(S(=O)(=O)N(CCC(N)=O)Cc2ccccc2)cc1` [C258, Cc1ccc(cc1)S(=O)(=O)N(CCC(=O)N)Cc2ccccc2]: the concentration for half-maximal inhibition (IC50) under setting [3] is > 50 µM. The “Decoy – 0 Active – 1” value under setting [4] turned out to be 0.
For the compound `N=C(Nc1ccccc1)C(N)=Nc1ccccc1` [C068, NC(=[NH+]c1ccccc1)C(=[NH2+])Nc1ccccc1], under setting [1], the IC50 was > 10 µM. The “Decoy – 0 Active – 1” value under setting [2] came to 0.
For `COC(=O)c1sccc1Nc1c(NC2CCCCC2)c(=O)c1=O` [C006, COC(=O)c1sccc1Nc1c(NC2CCCCC2)c(=O)c1=O], in that order: > 50 µM and 0.
On the same counts, the results for `CNC(=O)c1cccc(NC(=O)c2cn(Cc3ccccn3)nn2)c1C` [C100, CNC(=O)c1cccc(NC(=O)c2cn(Cc3ccccn3)nn2)c1C] are > 50 µM and 0.
On to `Cc1nccn1-c1ccccc1CNC(=O)CC1NC(=O)c2ccccc21` (stereo not shown) [C223, Cc1nccn1-c1ccccc1CNC(=O)CC1NC(=O)c2ccccc21], for which, under setting [3], the IC50 was > 50 µM. In addition, the “Decoy – 0 Active – 1” value under setting [4] came out at 0.
As to `Cc1c(NC(=O)CN(C)Cc2ccc(F)cc2)cccc1C(=O)N(C)C` [C099, Cc1c(NC(=O)C[N@H+](C)Cc2ccc(F)cc2)cccc1C(=O)N(C)C], the IC50 under setting [1] is > 50 µM. Moreover, under setting [2], the “Decoy – 0 Active – 1” value is recorded as 0.
On to `Cc1nc[nH]c1C(=O)NC1CC(=O)N(Cc2ccccc2Cl)C1` (stereo not shown) [C274, Cc1nc[nH]c1C(=O)NC1CC(=O)N(Cc2ccccc2Cl)C1], for which the half-maximal inhibitory concentration (IC50) under setting [3] is > 50 µM. For the same compound, the “Decoy – 0 Active – 1” value under setting [4] was 0.
On the same counts, the results for `CC(C)Oc1ccc2ccccc2c1CNC(=O)N1CCC(C)(O)C1` (stereo not shown) [C169, CC(C)Oc1ccc2ccccc2c1CNC(=O)N1CCC(C)(O)C1] are > 50 µM and 0.
On the same counts, the results for `Cc1cc(C)cc(Nc2c(-c3cccc(O)c3)nc3ncccn23)c1` [C182, Cc1cc(C)cc(Nc2c(-c3cccc(O)c3)nc3ncccn23)c1] are > 50 µM and 0.
For `COc1ccc(S(=O)(=O)NC(c2ccc(F)cc2)c2nccn2C)cc1` (stereo not shown) [C267, Cn1ccnc1C(c2ccc(cc2)F)NS(=O)(=O)c3ccc(cc3)OC], in that order: > 50 µM and 0.
For the compound `COc1ccc2ccccc2c1CNc1c(N2CCSCC2)c(=O)c1=O` [C004, COc1ccc2ccccc2c1CNc1c(N2CCSCC2)c(=O)c1=O], the IC50 under setting [1] is > 50 µM. Further, the “Decoy – 0 Active – 1” value under setting [2] is on record as 0.
On to `O=C(N[C@@H](c1nccs1)C1CC1)c1cc(N2CCOCC2)ccn1` [C147, O=C(N[C@@H](c1nccs1)C1CC1)c1cc(N2CCOCC2)cc[nH+]1], for which the 50% inhibitory concentration (IC50) under setting [1] is > 50 µM. Moreover, under setting [2], the “Decoy – 0 Active – 1” value is reported as 0.
Take `C[C@@H](CNC(=O)N[C@H]1CCO[C@@H](c2ccccc2)C1)c1ccsc1` [C108, C[C@@H](CNC(=O)N[C@H]1CCO[C@@H](c2ccccc2)C1)c1ccsc1]: under setting [1], the IC50 is > 50 µM. Under setting [2], the “Decoy – 0 Active – 1” value is 0.
On the same counts, the results for `Cc1ccc(NC(=O)CN(C)C[C@@H]2CCCO2)cc1[N+](=O)[O-]` [C106, Cc1ccc(NC(=O)C[N@@H+](C)C[C@@H]2CCCO2)cc1[N+](=O)[O-]] are > 50 µM and 0.
Regarding `CN(Cc1csc(-c2ccccc2)n1)C(=O)c1c[nH]c(=O)c(Cl)c1` [C232, CN(Cc1csc(-c2ccccc2)n1)C(=O)c1c[nH]c(=O)c(Cl)c1], the IC50 under setting [3] is > 50 µM. Moreover, the “Decoy – 0 Active – 1” value under setting [4] came out at 0.
On the same counts, the results for `CC(C)(C)c1ccc(CN(Cc2ccccc2)Cc2nc(C(=O)N3CCOCC3)co2)cc1` [C243, CC(C)(C)c1ccc(cc1)C[NH+](Cc2ccccc2)Cc3nc(co3)C(=O)N4CCOCC4] are > 50 µM and 0.
On the same counts, the results for `CN1CCN(CCC2CCCCN2Cc2nc3ccccc3[nH]2)CC1` (stereo not shown) [C275, CN1CCN(CCC2CCCCN2Cc2nc3ccccc3[nH]2)CC1] are > 50 µM and 0.
Regarding `CN(C)C(=O)Cn1cccc(NC(=O)CCC(C)(C)c2ccccc2)c1=O` [C128, CN(C)C(=O)Cn1cccc(NC(=O)CCC(C)(C)c2ccccc2)c1=O], the half-inhibitory concentration (IC50) under setting [1] was > 50 µM. For the same compound, the “Decoy – 0 Active – 1” value under setting [2] came out at 0.
In the case of `O=C(CN(c1ccc(Br)cc1)S(=O)(=O)c1ccccc1)Nc1ccccc1C(=O)N1CCOCC1` [C233, c1ccc(cc1)S(=O)(=O)N(CC(=O)Nc2ccccc2C(=O)N3CCOCC3)c4ccc(cc4)Br], the IC50 under setting [3] is > 50 µM. The “Decoy – 0 Active – 1” value under setting [4] is listed as 0.
Consider `COC(=O)/C(=C\NC(=S)N/C=C(/OC(=N)c1ccccc1)C(=O)OC)NC(=O)c1ccccc1` [C042, S=C(N/C=C(C(OC)=O)/NC(C1=CC=CC=C1)=O)N/C=C(C(OC)=O)/OC(C2=CC=CC=C2)=N], for which the IC50 under setting [1] was > 30 µM. The “Decoy – 0 Active – 1” value under setting [2] is recorded as 0.
As to `CCOC[C@H]1CCN(C(=O)Nc2cccn(CC(F)(F)F)c2=O)C1` [C104, CCOC[C@H]1CCN(C(=O)Nc2cccn(CC(F)(F)F)c2=O)C1], under setting [1], the IC50 is > 50 µM. For the same compound, the “Decoy – 0 Active – 1” value under setting [2] was found to be 0.
On the same counts, the results for `CCn1nccc1[C@H]1NC(=O)CC[C@H]1NC(=O)c1cc(C)n(C)n1` [C152, CCn1nccc1[C@H]1NC(=O)CC[C@H]1NC(=O)c1cc(C)n(C)n1] are > 50 µM and 0.
On the same counts, the results for `CC(C)[C@@H](Nc1nccc(CCC(F)(F)F)n1)c1nccn1C` [C146, CC(C)[C@@H](Nc1nccc(CCC(F)(F)F)n1)c1nccn1C] are > 50 µM and 0.
